Laboratory results taken from patent publication US10004678B2, “Anti-dandruff compositions, and methods of use thereof” (LUCAS MEYER COSMETICS CANADA INC., priority 2013, dated 2018).

Key:
Format in all cases: cell-based
Details in all cases: w/v concentration, 0.25% is 2.5 g (dry weight)/L
[1] = tested on: M. restricta (strain 7877, Centralbureau voor Schimmerlcultures); assay: Malassezia species growth inhibition (MIC), M. restricta
Procedure: (§1) Determination of the effectiveness of the solution prepared as described in Example 1 on 3 different Malassezia species was determined by measuring the lowest concentration of a molecule for which there is no visible growth of the microorganism strain (MIC). The Malassezia species used were M. furfur (strain 1634.86, Pasteur Institute), M. globose (strain IP 2387.96, Pasteur Institute), and M. restricta (strain 7877, Centralbureau voor Schimmerlcultures). Results are presented as a w/v concentration—i.e., 0.04% is 0.4 g/L; 0.078% is 0.78 g/L, 0.156% is 1.56 g/L and 0.25% is 2.5 g (dry weight)/L.

[2] = tested on: M. furfur (strain 1634.86, Pasteur Institute); assay: Malassezia species growth inhibition (MIC), M. furfur
Procedure: as §1

[3] = tested on: M. globosa (strain IP 2387.96, Pasteur Institute); assay: Malassezia species growth inhibition (MIC), M. globosa
Procedure: as §1

SMILES | MIC (lowest concentration with no visible growth) [1] [%] | MIC (lowest concentration with no visible growth) [2] [%] | MIC (lowest concentration with no visible growth) [3] [%]
Cc1cc(CC(C)CC(C)(C)C)n(O)c(=O)c1.NCCO (stereo not drawn) [Piroctone olamine] | 0.156 | 0.078 | 0.156
S=[Se]=S [Selenium disulfide] | 0.04 | 0.04 | 0.04
